From ChEMBL document CHEMBL1158597, “Investigation of Beckett-Casy model 2: synthesis of novel 15-16 nornaltrexone derivatives and their pharmacology” (Bioorg Med Chem Lett, 2010) come the findings set out here.

Test [1] concerns the target Kappa-type opioid receptor (Cavia porcellus, UniProt P41144). The test can be described thus: Displacement of [3H][…] from kappa opioid receptor in Hartley guinea pig cerebellum by liquid scintillation counter. Format: tissue-based. In general terms: Displacement assays read how much labelled ligand stays bound in the presence of the test substance.
For the next test, the target named is Mu-type opioid receptor (Cavia porcellus, UniProt P97266). The test can be described thus: Displacement of [3H]DAMGO from mu opioid receptor in Hartley guinea pig forebrain by liquid scintillation counting.
The nature of test [2]: Displacement of [3H]NTI from delta opioid receptor in Hartley guinea pig forebrain by liquid scintillation counter. Set-up: species or system Cavia porcellus.

Sequence of Kappa-type opioid receptor (P41144 whole entry): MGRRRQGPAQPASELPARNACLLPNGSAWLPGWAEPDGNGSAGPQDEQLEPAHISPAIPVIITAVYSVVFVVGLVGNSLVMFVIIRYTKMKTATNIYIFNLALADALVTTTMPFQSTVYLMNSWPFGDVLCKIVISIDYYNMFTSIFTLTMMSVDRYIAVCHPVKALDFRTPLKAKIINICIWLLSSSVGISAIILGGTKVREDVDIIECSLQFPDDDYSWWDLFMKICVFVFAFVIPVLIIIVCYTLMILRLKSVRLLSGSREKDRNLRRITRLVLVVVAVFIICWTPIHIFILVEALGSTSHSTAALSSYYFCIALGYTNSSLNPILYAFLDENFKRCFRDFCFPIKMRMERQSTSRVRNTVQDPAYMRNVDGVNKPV
Sequence of Mu-type opioid receptor (P97266 whole entry): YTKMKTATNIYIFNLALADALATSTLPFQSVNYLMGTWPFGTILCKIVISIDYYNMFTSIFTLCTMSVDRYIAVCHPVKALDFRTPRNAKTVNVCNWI

Regarding `O=C1CC[C@]23OCCN4CC[C@@]25c2c(ccc(O)c2O[C@@H]15)C[C@@H]43`, the Ki in test [1] was determined as 72.6 nM; on Mu-type opioid receptor it was 86 nM. This compound had an IC50 in test [2] of more than 1000 nM.
Regarding `CN(CC1CC1)[C@@H]1Cc2ccc(O)c3c2[C@H]2[C@@H](O3)C(=O)CC[C@]21O`, the Ki was found to be 5.1 nM in test [1], 1.17 nM at Mu-type opioid receptor and 55.2 nM in test [2].
`O=C1CC[C@@]2(O)[C@H](NCC3CC3)Cc3ccc(O)c4c3[C@H]2[C@H]1O4`: the inhibitory constant (Ki) turned out to be 68.4 nM in test [1] and 24.7 nM on Mu-type opioid receptor. In test [2], this compound registered an IC50 of more than 1000 nM.
Consider `CN[C@@H]1Cc2ccc(O)c3c2[C@@H]2[C@H]1CCC(=O)[C@@H]2O3`, for which the IC50 in test [1] and in test [2] was more than 1000 nM in each case. The compound further showed a Ki at Mu-type opioid receptor of 164 nM.
For the compound `O=C1CC[C@@]23OCCN(CC4CC4)[C@@H]2Cc2ccc(O)c4c2[C@H]3[C@H]1O4`, the IC50 in test [1] and in test [2] was more than 1000 nM each time. In addition, affinity on Mu-type opioid receptor was put at a Ki of 294 nM.
As to `CN(CC1CC1)[C@@H]1Cc2ccc(O)c3c2[C@@H]2[C@H]1CCC(=O)[C@@H]2O3`, the values for the Ki (in test [1]; on Mu-type opioid receptor; in test [2]) were 8.81 nM, 3.36 nM and 272 nM, respectively.
`O=C1CC[C@@H]2[C@H]3c4c(ccc(O)c4O[C@@H]13)C[C@H]2NCC1CC1`: the Ki in test [1] was found to be 32.2 nM; at Mu-type opioid receptor, 30.3 nM. Further, the IC50 in test [2] was more than 1000 nM.
Consider `CN(C)[C@@H]1Cc2ccc(O)c3c2[C@H]2[C@@H](O3)C(=O)CC[C@]21O`, for which the IC50 in test [1] and in test [2] was more than 1000 nM each time. The compound also showed a Ki on Mu-type opioid receptor of 8.95 nM.
Take `CN1CCO[C@@]23CCC(=O)[C@@H]4Oc5c(O)ccc(c5[C@@H]42)C[C@@H]13`: the IC50 (in test [1]; on Mu-type opioid receptor; in test [2]) was more than 1000 nM in each case.
For `CN(C)[C@@H]1Cc2ccc(O)c3c2[C@@H]2[C@H]1CCC(=O)[C@@H]2O3`, the IC50 in test [1] and in test [2] was more than 1000 nM throughout. Also, the Ki at Mu-type opioid receptor came out at 50.9 nM.
Consider `CN[C@@H]1Cc2ccc(O)c3c2[C@H]2[C@@H](O3)C(=O)CC[C@@]12O`, for which the IC50 in test [1] and in test [2] was more than 1000 nM in each case. At Mu-type opioid receptor, this compound gave a Ki of 118 nM.

The Ki is a measure of affinity in units of concentration, obtained from inhibition or displacement. As a reminder, the IC50 is the midpoint of a concentration-inhibition curve. High values mean a need for much substance, low ones inhibition by little substance.
